Experimental data taken from US20110071115A1, “PHARMACEUTICALLY USEFUL HETEROCYCLE-SUBSTITUTED LACTAMS” (CYLENE PHARMACEUTICALS, INC., priority 2009, published 2011).
Like-named read-outs stand apart in the source and are kept apart here.

Key:
[1] = target: T1, recombinant human CK2 (Homo sapiens, UniProt P68400); assay: CK2 assay (cell-free, 33P-ATP filter plate); assay type: biochemical
T1 construct: purchased Upstate
Procedure: Modulatory activity of compounds described herein was assessed in vitro in cell-free CK2 assays by the following method.
Test compounds in aqueous solution were added at a volume of 10 microliters, to a reaction mixture comprising 10 microliters Assay Dilution Buffer (ADB; 20 mM MOPS, pH 7.2, 25 mM beta-glycerolphosphate, 5 mM EGTA, 1 mM sodium orthovanadate and 1 mM dithiothreitol), 10 microliters of substrate peptide (RRRDDDSDDD, dissolved in ADB at a concentration of 1 mM), 10 microliters of recombinant human CK2 (25 ng dissolved in ADB; Upstate). Reactions were initiated by the addition of 10 microliters of ATP Solution (90% 75 mM MgCl2, 75 micromolar ATP dissolved in ADB; 10% [γ-^33P]ATP (stock 1 mCi/100 μl; 3000 Ci/mmol (Perkin Elmer) and maintained for 10 minutes at 30° C. The reactions were quenched with 100 microliters of 0.75% phosphoric acid, then transferred to and filtered through a phosphocellulose filter plate (Millipore). After washing each well 5 times with 0.75% phosphoric acid, the plate was dried under vacuum for 5 min and, following the addition of 15 ul of scintilation fluid to each well, the residual radioactivity was measured using a Wallac luminescence counter.

[2] = system: BxPC3 human pancreatic adenocarcinoma cells; assay: Alamar Blue (AB) cell proliferation assay, BxPC3; assay type: cell-based
Procedure: (§1) A representative cell-proliferation assay protocol using Alamar Blue dye (stored at 4° C., use 20 ul per well) is described hereafter.
(§2) c. Plate 4,000-5,000 cells per well in 100 μl of medium and seed into a 96-well plate according to the following plate layout. Add cell culture medium only to wells B10 to B12. Wells B1 to B9 have cells but no compound added.
(§3) d. Add 100 μl of 2× drug dilution to each well in a concentration shown in the plate layout above. At the same time, add 100 μl of media into the control wells (wells B10 to B12). Total volume is 200 μl/well.
(§4) e. Incubate four (4) days at 37° C., 5% CO2 in a humidified incubator.
(§5) f. Add 20 μl Alamar Blue reagent to each well.
(§6) g. Incubate for four (4) hours at 37° C., 5% CO2 in a humidified incubator.
(§7) h. Record fluorescence at an excitation wavelength of 544 nm and emission wavelength of 590 nm using a microplate reader.
(§8) In the assays, cells are cultured with a test compound for approximately four days, the dye is then added to the cells and fluorescence of […] dye is detected after approximately four hours. Different types of cells can be utilized in the assays (e.g., HCT-116 human colorectal carcinoma cells, PC-3 human prostatic cancer cells, MDA-MB231 human breast cancer cells, K-562 human chronic myelogenous leukemia (CML) cells, MiaPaca human pancreatic carcinoma cells, MV-4 human acute myeloid leukemia cells, and BxPC3 human pancreatic adenocarcinoma cells).

[3] = system: MDAMB453; assay: Alamar Blue (AB) cell proliferation assay, MDAMB453; assay type: cell-based
Procedure: as §1, §2, §3, §4, §5, §6, §7, §8

[4] = target: recombinant human Pim-2 (Homo sapiens, UniProt Q9P1W9); assay: PIM-2 assay (33P-ATP filter plate); assay type: biochemical; settings: 2.5 uM compound
Chain of recombinant human Pim-2 (Q9P1W9 whole entry): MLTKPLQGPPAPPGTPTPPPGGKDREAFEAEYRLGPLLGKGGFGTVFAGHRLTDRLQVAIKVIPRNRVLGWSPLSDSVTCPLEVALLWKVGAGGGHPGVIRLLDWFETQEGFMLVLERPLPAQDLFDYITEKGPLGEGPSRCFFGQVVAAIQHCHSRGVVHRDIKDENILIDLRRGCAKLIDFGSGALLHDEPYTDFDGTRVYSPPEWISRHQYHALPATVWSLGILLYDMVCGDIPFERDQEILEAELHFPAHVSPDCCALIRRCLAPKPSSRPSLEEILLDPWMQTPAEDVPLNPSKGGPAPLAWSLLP
Procedure: Test compounds dissolved and diluted in DMSO (2 μl) were added to a reaction mixture comprising 10 μl of 5× Reaction Buffer (40 mM MOPS pH 7.0, 5 mM EDTA), 10 of recombinant human Pim-2 solution (4 ng Pim-2 dissolved in dilution buffer (20 mM MOPS pH 7.0; EDTA 1 mM; 5% Glycerol; 0.01% Brij 35; […]; […] 2-mercaptoethanol; 1 mg/ml BSA)) and 8 ul of water. Reactions were initiated by the addition of 10 ul of ATP Solution (49% (15 mM MgCl2; 75 uM ATP) 1% ([γ-33P]ATP: Stock 1 mCi/100 μl; 3000 Ci/mmol (Perkin Elmer)) and 10 ul of substrate peptide solution (RSRSSYPAGT, dissolved in water at a concentration of 1 mM), Reactions were maintained for […] at 30° C. The reactions were quenched with 100 ul of 0.75% phosphoric acid, then transferred to and filtered through a Phosphocellulose filter plate (Millipore, MSPH-N6B-50). After washing each well 4 times with 0.75% phosphoric acid, scintillation fluid (20 μL) was added to each well and the residual radioactivity was measured using a Wallac luminescence counter.

T1 sequence (P68400 whole entry): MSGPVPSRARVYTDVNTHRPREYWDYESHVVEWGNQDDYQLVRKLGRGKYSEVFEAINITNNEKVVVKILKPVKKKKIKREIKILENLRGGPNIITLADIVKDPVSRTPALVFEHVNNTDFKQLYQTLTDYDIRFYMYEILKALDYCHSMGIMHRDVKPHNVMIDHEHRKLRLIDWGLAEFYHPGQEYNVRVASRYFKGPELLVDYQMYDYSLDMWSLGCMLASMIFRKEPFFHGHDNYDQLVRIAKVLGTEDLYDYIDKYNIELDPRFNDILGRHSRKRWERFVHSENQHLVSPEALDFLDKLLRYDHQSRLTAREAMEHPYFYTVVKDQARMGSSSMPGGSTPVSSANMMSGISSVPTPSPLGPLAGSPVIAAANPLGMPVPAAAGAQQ
T1 sequence (P67870 whole entry partner): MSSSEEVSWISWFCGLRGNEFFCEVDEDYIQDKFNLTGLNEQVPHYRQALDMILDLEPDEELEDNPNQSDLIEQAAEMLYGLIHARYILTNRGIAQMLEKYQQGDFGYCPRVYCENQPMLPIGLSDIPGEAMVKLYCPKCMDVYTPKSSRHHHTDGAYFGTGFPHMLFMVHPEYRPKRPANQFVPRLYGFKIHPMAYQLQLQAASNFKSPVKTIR

IC50 [1] [µM]	IC50 ([2]; Homo sapiens, BXPC-3) [µM]	IC50 ([3]; Homo sapiens, MDA-MB-453, MDAMB453 cells) [µM]	inhibition at 2.5 µM ([4]; read-out: PIM2: % inh 2.5 uM) [%]	IC50 [2] [µM]	IC50 ([3]; MDAMB453 cells) [µM]	PIM2: % inh 2.5 uM [4] [%]	SMILES
< 1	11.3	6.09	6.72				C[C@H](Nc1cc(NC2CC2)n2ncc(/C=C3\CC(=O)NC3=O)c2n1)c1ccccc1 [Example A12]
< 0.1				> 30	> 30	73.771	O=C(O)CCCC(=O)OCN1C(=O)C/C(=C\c2cnn3c(NC4CC4)cc(Nc4cc(Cl)ccc4F)nc23)C1=O [Example P2]
< 1				12.4	10.5	49.047	CC(N)C(=O)OCN1C(=O)C/C(=C\c2cnn3c(NC4CC4)cc(Nc4cc(Cl)ccc4F)nc23)C1=O (stereo not drawn) [Example P7, (E)-(3-((5-(5-chloro-2-fluorophenylamino)-7-(cyclopropylamino)pyrazolo[1,5-a]pyrimidin-3-yl)methylene)-2,5-dioxopyrrolidin-1-yl)methy 2-aminopropanoate]
